The source of these data is publication PMC8765048 (JCI Insight, 2022).

The structures appear in SMILES notation. Like-named read-outs stand apart in the source and are kept apart here.

One series relates to A549 cells. Briefly: Phospholipidosis imaging (NBD-PE fluorescence). The conditions noted are these: 24 h, sangivamycin up to 5 μM, melperone 10 μM, amiodarone positive control.
For series [1], the system named is SARS-CoV-2 WA1. The experiment in a line: microbe, parasite or virus in culture. In kind it is cell-based. The conditions noted are these: for IC50: read-out: IC50.
Series [2] concerns COVID-19 higher risk individuals. Also noted: method as in earlier work. The settings on record: phase III clinical trial with 1433 patients, FDA advisory committee analysis; cited from earlier work.
Series [3] deals with SARS-CoV-2 B.1.429 (Epsilon). The experiment in a line: microbe, parasite or virus in culture. The class given is cell-based. The conditions noted are these: Severe acute respiratory syndrome coronavirus 2, Vero C1008, 48 h.
In series [4] the test system is SARS-CoV-2 B.1.1.7 (Alpha). The experiment in a line: microbe, parasite or virus in culture. The class given is cell-based. The settings on record: Severe acute respiratory syndrome coronavirus 2, Calu-3, 24 h.
Series [5] has as its system SARS-CoV-2 B.1.351 (Beta). The experiment in a line: microbe, parasite or virus in culture. In kind it is cell-based. The settings on record: Severe acute respiratory syndrome coronavirus 2, Calu-3, 48 h.
The subject of series [6] is SARS-CoV-2 P.2 (Zeta). The experiment in a line: microbe, parasite or virus in culture. In kind it is cell-based. The settings on record: Severe acute respiratory syndrome coronavirus 2, Calu-3, 24 h.
Series [7] has as its system SARS-CoV-2 P.2 (Zeta). Briefly: microbe, parasite or virus in culture. The conditions noted are these: Severe acute respiratory syndrome coronavirus 2, Vero C1008, 24 h. In kind it is cell-based.
In series [8] the test system is SARS-CoV-2 B.1.617.2 (Delta). Briefly: microbe, parasite or virus in culture. The class given is cell-based. The conditions noted are these: Severe acute respiratory syndrome coronavirus 2, VeroE6/TMPRSS2, 18 h.
The conditions of series [9]: mice; cited from earlier work.
For series [10], the system named is SARS-CoV-2 B.1.427 (Epsilon). The experiment in a line: microbe, parasite or virus in culture. In kind it is cell-based. The settings on record: Severe acute respiratory syndrome coronavirus 2, Calu-3, 24 h.
The test system of series [11] is SARS-CoV-2. Briefly: Combinatorial sangivamycin/remdesivir efficacy testing, Calu-3 cells. The conditions noted are these: Severe acute respiratory syndrome coronavirus 2, Calu-3; read-out: IC50 (nM), S:R by [Remdesivir]. In kind it is cell-based.
Series [12] relates to SARS-CoV-2 P.1 (Gamma). Briefly: microbe, parasite or virus in culture. The class given is cell-based. The conditions noted are these: Severe acute respiratory syndrome coronavirus 2, Calu-3, 24 h.
Series [13] concerns SARS-CoV-2 B.1.429 (Epsilon). Briefly: microbe, parasite or virus in culture. In kind it is cell-based. The settings on record: Severe acute respiratory syndrome coronavirus 2, Calu-3, 24 h.
Series [14] has as its system SARS-CoV-2 B.1.351 (Beta). The experiment in a line: microbe, parasite or virus in culture. The class given is cell-based. The settings on record: Severe acute respiratory syndrome coronavirus 2, Vero C1008, 18 h.
Series [15] deals with SARS-CoV-2 WA1. Briefly: microbe, parasite or virus in culture. The conditions noted are these: Severe acute respiratory syndrome coronavirus 2, Caco-2, 96 h. The class given is cell-based.
The conditions of series [16]: laboratory mouse liver, lung, and kidney microsomes; cited from earlier work.
For series [17], the system named is SARS-CoV-2 B.1.1.7 (Alpha). Briefly: microbe, parasite or virus in culture. The class given is cell-based. The conditions noted are these: Severe acute respiratory syndrome coronavirus 2, Vero C1008, 24 h.
In series [18] the test system is SARS-CoV-2 B.1.617.2 (Delta). Briefly: microbe, parasite or virus in culture. The conditions noted are these: Severe acute respiratory syndrome coronavirus 2, Calu-3, 24 h. The class given is cell-based.
For series [19], the system named is SARS-CoV-2. The experiment in a line: Combinatorial sangivamycin/remdesivir efficacy testing, Vero E6 cells. The class given is cell-based. The conditions noted are these: Severe acute respiratory syndrome coronavirus 2, Vero C1008; read-out: IC50 (nM), S:R by [Remdesivir].
The subject of series [20] is SARS-CoV-2 P.1 (Gamma). The experiment in a line: microbe, parasite or virus in culture. The class given is cell-based. The conditions noted are these: Severe acute respiratory syndrome coronavirus 2, Vero C1008, 24 h.
The test system of series [21] is SARS-CoV-2 WA1. The experiment in a line: microbe, parasite or virus in culture. The class given is cell-based. The conditions noted are these: Severe acute respiratory syndrome coronavirus 2, Calu-3, 72 h.
Series [22] has as its system SARS-CoV-2. The experiment in a line: Combinatorial sangivamycin/remdesivir efficacy testing, Caco-2 cells. The class given is cell-based. The conditions noted are these: Severe acute respiratory syndrome coronavirus 2, Caco-2; read-out: IC50 (nM), S:R by [Remdesivir].
Series [23] concerns SARS-CoV-2 B.1.427 (Epsilon). The experiment in a line: microbe, parasite or virus in culture. The class given is cell-based. The conditions noted are these: Severe acute respiratory syndrome coronavirus 2, Vero C1008, 24 h.
Series [24] can be described thus: 24-hour plasma pharmacokinetics in CD-1 laboratory mice. In kind it is in vivo, mouse. The conditions noted are these: CD-1 mice, sangivamycin i.p. 60 mg/kg; not in control mice. Here is the method:
We next evaluated the 24-hour pharmacokinetics (PK) of sangivamycin in CD-1 laboratory mouse plasma. Sangivamycin’s plasma concentrations increased following i.p. injection of 60 mg/kg to a peak at 2 hours, then decreased over 6 or 8 hours, and remained virtually unchanged up to 24 hours after dosing. […] Graphing plasma concentration versus time produced an area under the curve to the last time point with values of 632 ± 66.6 h•ng/mL for males and 833 ± 53.9 h•ng/mL for females. […] Our data corroborate historical PK studies in mice with ^3H-labeled sangivamycin performed at the NCI in 1974 ([20]). In these studies, free nucleoside and mono-, di-, and triphosphate forms of sangivamycin were detected in blood, urine, and multiple tissues (e.g., heart, liver, brain, spleen, and kidneys) following i.p. injection of 8 mg/kg. The studies established that sangivamycin was phosphorylated after transportation into cells. In liver, heart, and brain, the predominant form of sangivamycin was sangivamycin 5′-monophosphate (SMP). […] Therefore, we determined the level of SMP in blood in our PK study using a published liquid chromatography–tandem mass spectrometry (LC-MS/MS) method with a lower limit of quantification of 1 ng/mL ([33]). Using this method, we detected SMP in the plasma of dosed mice but not control mice (Supplemental Figure 9B). The apparent levels of SMP increased in blood during the 24 hours of this study. There also was possible presence of a diphosphate metabolite of sangivamycin, but it was detected only in the plasma samples taken 24 hours after dosing.

Where [25] appears, read: Severe acute respiratory syndrome coronavirus 2, Vero C1008, 48 h.

As for `CCCCc1oc2ccccc2c1C(=O)c1cc(I)c(OCCN(CC)CC)c(I)c1` [Amiodarone, reference compound], in the series on A549 cells, the “NBD-PE fluorescence (phospholipidosis)” value is reported as “induced NBD-PE fluorescence”.

In the case of `N#C[C@@]1(c2ccc3c(N)ncnn23)O[C@H](CO)[C@@H](O)[C@H]1O` [GS-441524, reference compound], the “IC50 fold higher than the IC50 of sangivamycin” value with SARS-CoV-2 WA1 [1] is 27 fold. Moreover, the IC50 with SARS-CoV-2 WA1 [1] (Severe acute respiratory syndrome coronavirus 2, Vero C1008) worked out at 1420 ± 20 nM.

As for `CC(C)C(=O)OC[C@H]1O[C@@H](n2ccc(NO)nc2=O)[C@H](O)[C@@H]1O` [Molnupiravir], in series [2], the “reduction of risk for hospitalization and death” value is on record as 30%.

`CCC(CC)COC(=O)[C@H](C)N[P@](=O)(OC[C@H]1O[C@@](C#N)(c2ccc3c(N)ncnn23)[C@H](O)[C@@H]1O)Oc1ccccc1` [Remdesivir, remdesivir, reference compound]: the IC50 stood at 1770 nM in [3]; 3180 nM in series [4]; 951 nM in [5]; 791 nM in the series on SARS-CoV-2 P.2 (Zeta) [6]; 1560 nM with SARS-CoV-2 P.2 (Zeta) [7]; 2270 nM in the series with SARS-CoV-2 WA1 [1] (setting [25]). Besides, the IC50 in series [8] came out at 5460 nM; in series [10] it was 1500 nM; in the series on SARS-CoV-2 [11], 4470 nM; with SARS-CoV-2 P.1 (Gamma) [12] it was 1700 nM; in series [13], 2800 nM; in [14] it was 2370 nM. Besides, the IC50 in the series on SARS-CoV-2 WA1 [15] was 3 nM; in [17], 1420 nM; in [18] it was 2910 nM; in the series on SARS-CoV-2 [19] it was 2320 nM; with SARS-CoV-2 P.1 (Gamma) [20] it was 702 nM; with SARS-CoV-2 WA1 [21] it was 4490 nM. The concentration for half-maximal inhibition (IC50) in the series on SARS-CoV-2 [22] turned out to be 17.6 nM; in series [23], 1270 nM. For the same compound, the IC90 was 2470 nM in [3]; over 10000 nM in [4]; 2290 nM in series [5]; 4800 nM in the series with SARS-CoV-2 P.2 (Zeta) [6]; 4910 nM in the series with SARS-CoV-2 P.2 (Zeta) [7]; 3530 nM in the series on SARS-CoV-2 WA1 [1] (setting [25]). Also, the IC90 in series [8] was over 10000 nM; in [10] it was 6090 nM; with SARS-CoV-2 P.1 (Gamma) [12], 6270 nM; in [13] it was over 10000 nM; in series [14] it was 4030 nM; in the series on SARS-CoV-2 WA1 [15], 13 nM. The IC90 in series [17] was 3680 nM; in [18], over 10000 nM; with SARS-CoV-2 P.1 (Gamma) [20], 3680 nM; in the series with SARS-CoV-2 WA1 [21], 8190 nM; in series [23] it was 3280 nM. The “half-lives (free nucleoside and monophosphate forms)” value in [9] is “about 5 hours”. In series [16], the “time within which remdesivir and its monophosphate are lost” value was at most 10 min.

`NC(=O)c1cn(C2OC(COP(=O)(O)O)C(O)C2O)c2ncnc(N)c12` (centres unmarked) [SMP, sangivamycin 5′-monophosphate]: the “presence in plasma of sangivamycin-dosed mice (LC-MS/MS)” value in series [24] is “detected”.

In general, IC50 refers to the point on the concentration scale where inhibition reaches its midpoint. As a reminder, the IC90 is the concentration at which the effect reaches the 90% level. Higher therefore signals weaker potency.
